Values of other authors, collected in patent publication US20250368755A1, “PEPTIDE THAT SP[…] TO PPC REGION OF SARS-COV-2 SPIKE PROTEIN AND COMPOSITION FOR […]-COV-2 INFECTION USING THE SAME” (priority 2024, published 2025).

Biological target: S1/S2 region
Conditions: known value; read-out: binding affinity of furin for the cleavage of S1/S2 region; cited from earlier work

For furin, the Kd is given as 16 nM.
